Test results taken from PubChem BioAssay AID651855 (NMMLSC, 2012).
pEC50: −log10 of the molar value. Calls of active or inactive are those of the source.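 How the source made its calls: active means compounds whose fitted concentration for half loss of dye binding is under 10 µM; inactive means the rest.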

Test system: FAP-tagged hCCR5 cells, MG2p fluorogen binding, flow cytometry
Assay: interference with FAP-CCR5 fluorogen signal, dose response, counter-screen for beta2AR agonist project, cell-based, FAP-tagged human CCR5, Powderset3 (AID 651855)
Conditions: not given

Row | SMILES | pEC50
1 | Cc1ccccc1N1CCN(c2ncnc3c2cnn3Cc2ccc(Cl)cc2)CC1 | 5.36
2 | Cc1ncc(CN2CCCC(C(=O)Nc3ccc(-c4cccc(F)c4)cc3)C2)s1 (configuration not stated) | 5.91
3 | CN(Cc1ccccc1)S(=O)(=O)c1ccc(NS(=O)(=O)Cc2ccccc2)cc1 | 6.97
4 | Clc1ccc(OCc2nnc(SCc3nc4ccccc4[nH]3)n2Cc2ccco2)cc1 | 8.00
5 | Cc1ccc(OCc2cc(C(=O)N(C)Cc3cnn(-c4ccccc4C)c3)no2)cn1 | 6.96
6 | CC(=O)Nc1ccc(S(=O)(=O)N2CCC(Oc3ccc(-n4cnnn4)cc3)CC2)cc1 | 7.22
7 | CC1(C)Cc2c(c(N3CCCC3)nc3sc4c(N5CCN(CCO)CC5)ncnc4c23)CO1 | 5.53
8 | C=CCn1c(CCNC(=O)c2cccs2)nnc1SCC(=O)c1cccc([N+](=O)[O-])c1 | 8.62
9 | Cn1c(N2CCN(c3ccccn3)CC2)nc2c1c(=O)n(Cc1ccc(Cl)cc1)c(=O)n2C | 7.68
10 | CC(C)Cc1nc2sc3c(NCc4ccco4)ncnc3c2c2c1COC(C)(C)C2 | 7.40
11 | COc1ccc(OC)c(CCNC(=O)C2CCN(c3nnc(-n4cccc4)s3)CC2)c1 | 6.04
12 | CSc1nc(SCCO)c2sc3nc(-c4ccco4)c4c(c3c2n1)CC(C)(C)OC4 | 5.73
13 | Clc1cccc(-c2nnc(SCc3nc4ccccc4[nH]3)n2Cc2ccco2)c1 | 4.98
14 | Cc1ccc(Cn2ccc(NC(=O)c3cc4nc(-c5ccco5)cc(C(F)(F)F)n4n3)n2)cc1 | 8.05
15 | CC(Oc1ccc(Cl)cc1Cl)c1nc(-c2ccc(NC(=O)c3ccccn3)cc2)no1 (configuration not stated) | 6.37
16 | C=CCn1c(CCNC(=O)c2cccs2)nnc1SCC(=O)c1ccc(Br)cc1 | 7.76
17 | CC(Sc1nc(-c2ccccc2)cc(C(F)(F)F)n1)C(=O)N1CCCCC1 (configuration not stated) | 7.59
18 | C=CCn1c(CCNC(=O)c2cccs2)nnc1SCC(=O)c1ccc(Cl)cc1 | 8.15
19 | CC(Sc1nc(-c2ccccc2)cc(C(F)(F)F)n1)C(=O)N1CCOCC1 (configuration not stated) | 7.57

Test system: not listed separately
Assay: as above
Conditions: FAP-tagged hCCR5 cells, MG2p fluorogen binding, flow cytometry; stronger effect = higher value

Row | SMILES | percent span
20 | CCC(NC(=O)c1cc(COc2ccc(C)nc2)on1)c1ccc(C)cc1 (configuration not stated) | 53.2% (inactive)
21 | CCCCN(C(=O)c1ccc(NC(=O)C(C)C)cc1)c1ccccc1 | 31.9% (inactive)
22 | CC1(C)Cc2c(c(N3CCOCC3)nc3sc4c(NCCN)ncnc4c23)CO1 | 116% (inactive)
23 | COCc1ccc(CN2CCCC(C(=O)Nc3ccc(-c4cccc(OC)c4)cc3)C2)o1 (configuration not stated) | 41.6% (inactive)
24 | Cc1ccc(-c2nc3ncccc3o2)cc1NC(=O)c1sc2ccccc2c1Cl | 35.8% (inactive)
25 | COC(=O)c1ccc(CNC(=O)c2cc(COc3cncc(Cl)c3)on2)cc1 | 28.2% (inactive)
26 | c1ccc(-c2nnc(SCc3nc4ccccc4[nH]3)n2Cc2ccco2)cc1 | 15.8% (inactive)
27 | CC(C)CNc1ncnc2c1sc1nc(N3CCOCC3)c3c(c12)CC(C)(C)OC3 | -9.78% (inactive)
28 | Cc1ccc(OCc2nnc(SCc3nc4ccccc4[nH]3)n2Cc2ccco2)cc1 | 61.9% (inactive)
29 | Cc1ccc(NC(=O)C(c2ccc(Cl)cc2)N2CCOCC2)cc1 (configuration not stated) | 49.5% (inactive)
30 | O=C(c1cc2c(=O)n3ccccc3nc2s1)N1CCN(Cc2ccc3c(c2)OCO3)CC1 | 39.7% (inactive)
31 | O=C(NC1CCc2ccccc21)c1cc(COc2cncc(Cl)c2)on1 (configuration not stated) | 4.03% (inactive)
32 | CC(Oc1ccc(Cl)cc1Cl)c1nc(-c2ccc(NC(=O)c3ccco3)cc2)no1 (configuration not stated) | 42.1% (inactive)
